Paper PMC9139979, “Features of ZED1227: The First-In-Class Tissue Transglutaminase Inhibitor Undergoing Clinical Evaluation for the Treatment of Celiac Disease” (Cells, 2022)
“Also recorded” adds a separate entry of the source.

Key:
Huh7 cells = assay: EZ4U viability assay, Huh7; type: cell-based; conditions: up to 1,000 μM, 48 h
Description: Cytotoxicological analysis of ZED1227 was performed using Huh7 (human liver carcinoma, CLS Cell Lines Service GmbH, Eppelheim, Germany) and Caco-2 cells (human epithelial colorectal adenocarcinoma, Sigma Aldrich, Taufkirchen, Germany) with respect to the effect on proliferation and viability, according to the assay protocols provided by the manufacturers of the respective kits. The Cell Proliferation ELISA (BrdU, colorimetric) was purchased from Roche (Mannheim, Germany), whereas the Cell Proliferation and Cytotoxicity Assay EZ4U was purchased from Biomedica (Vienna, Austria). […]
The EZ4U assay (determination of viability) was performed by incubating the cells with ZED1227 working solution (1% DMSO in culture medium) up to a concentration of 1,000 μM for 48 h, followed by addition of a yellow tetrazolium reagent (not further specified) into the culture medium. The non-toxic tetrazolium salts were reduced to red-colored formazan which was quantified spectrophotometrically. […]

hTG3 = biological target: T1, hTG3 (Homo sapiens, UniProt Q08188); assay: Fluorescent transamidation assay (DCC-assay), hTG3; type: biochemical
T1 construct: purchased Zedira T013
T1 sequence (Q08188 2-467 limits assumed): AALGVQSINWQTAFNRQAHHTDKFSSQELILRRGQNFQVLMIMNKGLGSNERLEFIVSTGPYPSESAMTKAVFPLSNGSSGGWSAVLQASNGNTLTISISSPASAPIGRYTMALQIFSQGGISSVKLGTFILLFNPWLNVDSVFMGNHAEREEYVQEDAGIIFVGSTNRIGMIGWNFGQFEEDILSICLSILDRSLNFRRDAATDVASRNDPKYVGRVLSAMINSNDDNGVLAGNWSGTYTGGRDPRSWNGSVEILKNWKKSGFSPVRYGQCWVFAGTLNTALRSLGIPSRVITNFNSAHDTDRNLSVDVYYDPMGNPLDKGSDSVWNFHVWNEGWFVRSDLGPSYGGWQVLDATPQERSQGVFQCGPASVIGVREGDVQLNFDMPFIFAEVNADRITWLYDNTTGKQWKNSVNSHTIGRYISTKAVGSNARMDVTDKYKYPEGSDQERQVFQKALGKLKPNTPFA
T1 sequence (Q08188 468-693 partner limits assumed): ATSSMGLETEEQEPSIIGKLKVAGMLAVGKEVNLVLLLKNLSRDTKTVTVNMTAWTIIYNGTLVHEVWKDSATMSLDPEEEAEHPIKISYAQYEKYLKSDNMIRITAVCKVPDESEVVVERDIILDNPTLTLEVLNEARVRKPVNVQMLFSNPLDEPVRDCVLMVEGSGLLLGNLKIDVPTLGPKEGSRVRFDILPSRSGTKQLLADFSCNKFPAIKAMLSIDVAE

CCC(CC)CNC(=O)Cn1cccc(NC(=O)[C@H](CC/C=C/C(=O)OC)NC(=O)c2cncn2C)c1=O [ZED1227, (S,E)-Methyl 7-(1-(2-(2-ethylbutylamino)-2-oxoethyl)-2-oxo-1,2-dihydropyridin-3-ylamino)-6-(1-methyl-1H-imidazole-5-carboxamido)-7-oxohept-2-enoate]
Cytotoxicity: Viability, Huh7 cells (Huh7 cells): not cytotoxic up to 1,000 μM; also recorded: no effect up to 1,000 μM no effect up to 1,000 μM no effect up to 1,000 μM no effect up to 1,000 μM | Selectivity hTG3 versus hTG2 (hTG3; ratio of app. IC50 values): >900 fold | IC50 (hTG3; recombinant, activated hTG3a, transamidation assay, read-out: App. IC50 hTG3): > 50 µM
